Test results reported in patent US5736545A, “Azolyl piperazinyl phenyl oxazolidinone antimicrobials” (Pharmacia & Upjohn Company, priority 1997, dated 1998).
≈ marks a conversion by molar mass, not a printed value. Read-outs that look alike come from different tables or passages of the source.

Columns and labels:
S. aureus UC ® 9213 = test: In vitro MIC by agar dilution (NCCLS), Gram-positive bacteria: S. aureus; type: cell-based, Staphylococcus aureus; conditions: for MIC: Staphylococcus aureus
Source text: The oxazolidinone antibacterial agents of this invention have useful activity against a variety of organisms. The in vitro activity of compounds of this invention can be assessed by standard testing procedures such as the determination of minimum inhibitory concentration (MIC) by agar dilution as described in "Methods for Dilution Antimicrobial Susceptibility Tests for Bacteria That Grow Aerobically" (MFT) published January 1983 by the National Committee for Clinical Laboratory Standards, 771 East Lancaster Avenue, Villanova, Pa. 19084, USA. The activity of selected compounds of this invention against Staphylococcus aureus and Streptococcus pneumoniae are shown in Table 1.
^a Minimum inhibitory concentration: lowest concentration of drug
(μg/mL) that inhibits visible growth of the organism.

E. Faecalis UC ® 9217 = test: In vitro MIC by agar dilution (NCCLS), Gram-positive bacteria: E. faecalis; type: cell-based; conditions: for MIC: Enterococcus faecalis
[1] = UC9213, S. aureus UC 9213, agar dilution, read-out: MIC (minimum inhibitory concentration: lowest concentration of drug that inhibits visible growth of the organism)
[2] = UC9217, E. Faecalis UC 9217, agar dilution, read-out: MIC (minimum inhibitory concentration: lowest concentration of drug that inhibits visible growth of the organism)

Compound	MIC (S. aureus UC ® 9213; [1])	MIC (E. Faecalis UC ® 9217; [2])	also measured
CC(=O)NC[C@H]1CN(c2ccc(N3CCN(c4ncc([N+](=O)[O-])s4)CC3)c(F)c2)C(=O)O1 [Example 2, (S)--N--[[3-[3-Fluoro-4-[4-(5-nitrothiazol-2-yl)-1-piperazinyl]phenyl]-2-oxo-5-oxazolidinyl]methyl]acetamide]	2 µg/mL (≈ 4.31 µM)	2 µg/mL (≈ 4.31 µM)	–
CC(=O)NC[C@H]1CN(c2ccc(N3CCN(c4nc5ccc([N+](=O)[O-])cc5s4)CC3)c(F)c2)C(=O)O1 [Example 6, (S)--N--[[3-[3-Fluoro-4-[4-(6-nitrobenzothiazol-2-yl)-1-piperazinyl]phenyl]-2-oxo-5-oxazolidinyl]methyl]acetamide]	0.5 µg/mL (≈ 0.972 µM)	0.5 µg/mL (≈ 0.972 µM)	–
CC(=O)NC[C@H]1CN(c2ccc(N3CCNCC3)c(F)c2)C(=O)O1 [XLII, reference compound]	> 64 µg/mL	32 µg/mL (≈ 95.1 µM)	–
CC(=O)NC[C@H]1CN(c2ccc(N3CCN(c4nc5ccccc5s4)CC3)c(F)c2)C(=O)O1 [Example 1, (S)--N--[[3-[4-[4-(2-Benzothiazolyl)-1-piperazinyl]-3-fluorophenyl]-2-oxo-5-oxazolidinyl]methyl]acetamide]	4 µg/mL (≈ 8.52 µM)	2 µg/mL (≈ 4.26 µM)	–
CC(=O)NC[C@H]1CN(c2ccc(N3CCN(c4nnnn4-c4ccccc4)CC3)c(F)c2)C(=O)O1 [Example 13]	4 µg/mL (≈ 8.32 µM)	4 µg/mL (≈ 8.32 µM)	–
CC(=O)NC[C@H]1CN(c2ccc(N3CCN(c4nc5cc(F)ccc5o4)CC3)c(F)c2)C(=O)O1 [Example 7, (S)--N--[[3-[3-Fluoro-4-[4-(5-fluorobenzoxazol-2-yl)-1-piperazinyl]phenyl]-2-oxo-5-oxazolidinyl]methyl]acetamide]	4 µg/mL (≈ 8.48 µM)	4 µg/mL (≈ 8.48 µM)	–
CC(=O)NC[C@H]1CN(c2ccc(N3CCN(c4nnc(C)s4)CC3)c(F)c2)C(=O)O1 [Example 17, (S)--N--[[3-[3-Fluoro-4-[4-(5-methyl-1,3,4-thiadiazol-2-yl)-1-piperazinyl]phenyl]-2-oxo-5-oxazolidinyl]methyl]acetamide]	0.5 µg/mL (≈ 1.15 µM)	1 µg/mL (≈ 2.3 µM)	–
CC(=O)NC[C@H]1CN(c2ccc(N3CCN(c4nncs4)CC3)c(F)c2)C(=O)O1 [Example 16, (S)--N--[[3-[3-Fluoro-4-[4-(1,3,4-thiadiazol-2-yl)-1-piperazinyl]phenyl]-2-oxo-5-oxazolidinyl]mehtyl]acetamide]	1 µg/mL (≈ 2.38 µM)	1 µg/mL (≈ 2.38 µM)	–
CN[C@H](CC(C)C)C(=O)N[C@H]1C(=O)N[C@@H](CC(N)=O)C(=O)N[C@H]2C(=O)N[C@H]3C(=O)N[C@H](C(=O)N[C@H](C(=O)O)c4cc(O)cc(O)c4-c4cc3ccc4O)[C@H](O)c3ccc(c(Cl)c3)Oc3cc2cc(c3O[C@@H]2O[C@H](CO)[C@@H](O)[C@H](O)[C@H]2O[C@H]2C[C@](C)(N)[C@H](O)[C@H](C)O2)Oc2ccc(cc2Cl)[C@H]1O [Vancomycin, reference compound]	–	–	MIC (S. aureus UC ® 9213; UC9213, read-out: MIC (minimum inhibitory concentration: lowest concentration of drug that inhibits visible growth of the organism)): 1 µg/mL (≈ 0.69 µM); MIC (E. Faecalis UC ® 9217; UC9217, read-out: MIC (minimum inhibitory concentration: lowest concentration of drug that inhibits visible growth of the organism)): 4 µg/mL (≈ 2.76 µM)
CC(=O)NC[C@H]1CN(c2ccc(N3CCN(c4nc5ccccc5o4)CC3)c(F)c2)C(=O)O1 [Example 3, (S)--N--[[3-[4-[4-(2-Benzoxazolyl)-1-piperazinyl]-3-fluorophenyl]-2-oxo-5-oxazolidinyl]methyl]acetamide]	2 µg/mL (≈ 4.41 µM)	2 µg/mL (≈ 4.41 µM)	–
CC(=O)NC[C@H]1CN(c2ccc(N3CCN(c4nnc(N)s4)CC3)c(F)c2)C(=O)O1 [Example 18]	2 µg/mL (≈ 4.59 µM)	2 µg/mL (≈ 4.59 µM)	–
CC(=O)NC[C@H]1CN(c2ccc(N3CCN(c4nc(=O)n(-c5ccccc5)s4)CC3)c(F)c2)C(=O)O1 [Example 26, (S)--N--[[3-[3-Fluoro-4-[4-(2-phenyl-3-oxo-1,2,4-thiadiazol-5-yl)-1-piperazinyl]phenyl]-2-oxo-5-oxazolidinyl]methyl]acetamide]	8 µg/mL (≈ 15.6 µM)	4 µg/mL (≈ 7.8 µM)	–
CC(=O)NC[C@H]1CN(c2ccc(N3CCN(c4n[nH]c(=O)s4)CC3)c(F)c2)C(=O)O1 [Example 24, (S)--N--[[3-[3-Fluoro-4-[4-(5-oxo-1,3,4-thiadiazol-2-yl)-1-piperazinyl]phenyl]-2-oxo-5-oxazolidinyl]methyl]acetamide]	1 µg/mL (≈ 2.29 µM)	1 µg/mL (≈ 2.29 µM)	–
CC(=O)NC[C@H]1CN(c2ccc(N3CCN(c4nc5cc([N+](=O)[O-])ccc5o4)CC3)c(F)c2)C(=O)O1 [Example 4, (S)--N--[[3-[3-Fluoro-4-[4-(5-nitrobenzoxazol-2-yl)-1-piperazinyl]phenyl]-2-oxo-5-oxazolidinyl]methyl]acetamide]	1 µg/mL (≈ 2.01 µM)	1 µg/mL (≈ 2.01 µM)	–
CCOC(=O)c1nnc(N2CCN(c3ccc(N4C[C@H](CNC(C)=O)OC4=O)cc3F)CC2)s1 [Example 19, (S)--N--[[3-[4-[4-(5-Ethoxycarbonyl-1,3,4-thiadiazol-2-yl)-3-fluoro-1-piperazinyl]phenyl]-2-oxo-5-oxazolidinyl]methyl]acetamide]	4 µg/mL (≈ 8.12 µM)	2 µg/mL (≈ 4.06 µM)	–
(S)--N--[[3-[4-[3-Fluoro-4-[(methyl-5-tetrazolyl)-1-piperazinyl]phenyl]-2-oxo-5-oxazolidinyl]methyl]acetamide [Example 14]	–	–	MIC (minimum inhibitory concentration: lowest concentration of drug that inhibits visible growth of the organism) (S. aureus UC ® 9213; S. aureus UC 9213, agar dilution): 4 µg/mL; MIC (minimum inhibitory concentration: lowest concentration of drug that inhibits visible growth of the organism) (E. Faecalis UC ® 9217; E. Faecalis UC 9217, agar dilution): 2 µg/mL
CC(=O)NC[C@H]1CN(c2ccc(N3CCN(c4nc5cccc(F)c5o4)CC3)c(F)c2)C(=O)O1 [Example 9, (S)--N--[[3-[3-Fluoro-4-[4-(7-fluorobenzoxazol-2-yl)-1-piperazinyl]phenyl]-2-oxo-5-oxazolidinyl]methyl]acetamide]	1 µg/mL (≈ 2.12 µM)	1 µg/mL (≈ 2.12 µM)	–
CC(=O)NC[C@H]1CN(c2ccc(N3CCN(C4=NCCO4)CC3)c(F)c2)C(=O)O1 [Example 12, (S)--N--[[3-[4-[4-(4,5-Dihydro-2-oxazolyl)-1-piperazinyl]-3-fluorophenyl]-2-oxo-5-oxazolidinyl]methyl]acetamide]	32 µg/mL (≈ 78.9 µM)	4 µg/mL (≈ 9.87 µM)	–
CC(=O)NC[C@H]1CN(c2ccc(N3CCN(c4nc5ccc(F)c(F)c5o4)CC3)c(F)c2)C(=O)O1 [Example 10, (S)--N--[[3-[3-Fluoro-4-[4-(6,7-difluorobenzoxazol-2-yl)-1-piperazinyl]phenyl]-2-oxo-5-oxazolidinyl]methyl]acetamide]	2 µg/mL (≈ 4.09 µM)	2 µg/mL (≈ 4.09 µM)	–
CC(=O)NC[C@H]1CN(c2ccc(N3CCN(c4nc(C)ns4)CC3)c(F)c2)C(=O)O1 [Example 25]	2 µg/mL (≈ 4.6 µM)	1 µg/mL (≈ 2.3 µM)	–
CC(=O)NC[C@H]1CN(c2ccc(N3CCN(C4=NCCS4)CC3)c(F)c2)C(=O)O1 [Example 11, (S)--N--[[3-[4-[4-(4,5-Dihydro-2-thiazolyl)-1-piperazinyl]-3-fluorophenyl]-2-oxo-5-oxazolidinyl]methyl]acetamide]	2 µg/mL (≈ 4.74 µM)	1 µg/mL (≈ 2.37 µM)	–
CC(=O)NC[C@H]1CN(c2ccc(N3CCN(C4=NC(=O)CS4)CC3)c(F)c2)C(=O)O1 [Example 15]	2 µg/mL (≈ 4.59 µM)	1 µg/mL (≈ 2.3 µM)	–
CC(=O)NC[C@H]1CN(c2ccc(N3CCN(c4nnc(C)o4)CC3)c(F)c2)C(=O)O1 [Example 27, (S)--N--[[3-[3-Fluoro-4-[4-(5-methyl-1,3,4-oxadiazol-2-yl)-1-piperazinyl]phenyl]-2-oxo-5-oxazolidinyl]methyl]acetamide]	4 µg/mL (≈ 9.56 µM)	4 µg/mL (≈ 9.56 µM)	–
CC(=O)NC[C@H]1CN(c2ccc(N3CCN(c4nnc(C(F)(F)F)s4)CC3)c(F)c2)C(=O)O1 [Example 20, (S)--N--[[3-[3-Fluoro-4-[4-(5-trifluoromethyl-1,3,4-thiadiazol-2-yl)-1-piperazinyl]phenyl]-2-oxo-5-oxazolidinyl]methyl]acetamide]	4 µg/mL (≈ 8.19 µM)	2 µg/mL (≈ 4.09 µM)	–
CC(=O)NC[C@H]1CN(c2ccc(N3CCN(c4nccs4)CC3)c(F)c2)C(=O)O1 [Example 5, (S)--N--[[3-[3-Fluoro-4-[4-(2-thiazolyl)-1-piperazinyl]phenyl]-2-oxo-5-oxazolidinyl]methyl]acetamide]	2 µg/mL (≈ 4.77 µM)	1 µg/mL (≈ 2.38 µM)	–
CC(=O)NC[C@H]1CN(c2ccc(N3CCN(c4nc5ccc(F)cc5o4)CC3)c(F)c2)C(=O)O1 [Example 8, (S)--N--[[3-[3-Fluoro-4-[4-(6-fluorobenzoxazol-2-yl)-1-piperazinyl]phenyl]-2-oxo-5-oxazolidinyl]methyl]acetamide]	2 µg/mL (≈ 4.24 µM)	1 µg/mL (≈ 2.12 µM)	–
